# Key:
# Type in all cases: in vivo
# corn (Zea mays) [1] = assay: Test A postemergence application, visual injury rating 0-100; settings: Postemergence, 10 days, 0 is no effect, 100 is complete control
# Summary of the method: (§1)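 Grow plants in loam soil blended with sand. Apply formulated compound (non-phytotoxic solvent, surfactant) as a directed soil spray before emergence, or to plants at the one- to two-leaf stage after emergence. Hold in greenhouse 10 days, then rate injury visually versus untreated controls on a 0-100 scale.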
# [2] = system: oat, wild (wild oat, Avena fatua); assay: as above; settings: Postemergence, 10 days, 0 is no effect, 100 is complete control
# Summary of the method: as §1
# [3] = system: barnyardgrass (Echinochloa crus-galli); assay: as above; settings: Postemergence, 10 days, 0 is no effect, 100 is complete control
# Summary of the method: as §1
# [4] = system: ragweed (common ragweed, Ambrosia artemisiifolia); assay: as above; settings: Postemergence, 10 days, 0 is no effect, 100 is complete control
# Summary of the method: as §1
# [5] = system: wheat (Triticum aestivum); assay: as above; settings: Postemergence, 10 days, 0 is no effect, 100 is complete control
# Summary of the method: as §1
# [6] = system: palmer (palmer amaranth, palmer pigweed, Amaranthus palmeri); assay: as above; settings: Postemergence, 10 days, 0 is no effect, 100 is complete control
# Summary of the method: as §1
# [7] = system: blackgrass (Alopecurus myosuroides); assay: as above; settings: Postemergence, 10 days, 0 is no effect, 100 is complete control
# Summary of the method: as §1
# soybean (Glycine max) [8] = assay: as above; settings: Postemergence, 10 days, 0 is no effect, 100 is complete control
# Summary of the method: as §1
# [9] = system: galium (catchweed bedstraw, Galium aparine); assay: as above; settings: Postemergence, 10 days, 0 is no effect, 100 is complete control
# Summary of the method: as §1
# [10] = system: foxtail, giant (giant foxtail, Setaria faberi); assay: as above; settings: 10 days, 0 is no effect, 100 is complete control
# Summary of the method: as §1
# kochia (Bassia scoparia) [11] = assay: as above; settings: Postemergence, 10 days, 0 is no effect, 100 is complete control
# Summary of the method: as §1
# [12] = system: horseweed (Erigeron canadensis); assay: as above; settings: Postemergence, 10 days, 0 is no effect, 100 is complete control
# Summary of the method: as §1
# [13] = system: ryegrass, Italian (italian ryegrass, Lolium multiflorum); assay: as above; settings: Postemergence, 10 days, 0 is no effect, 100 is complete control
# Summary of the method: as §1
# [14] = system: sedge, umbrella (small-flower umbrella sedge, Cyperus difformis); assay: Test B flooded paddy test, visual plant response rating 0-100; settings: 250 g ai/ha, Flood, applied to paddy water, evaluated after 13 days
# Summary of the method: (§2)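 Paddy-water application: test compounds went directly into water flooded 3 cm above the soil surface, with plants at 2 leaves. After a 13-day greenhouse period, responses were judged by eye relative to controls; a dash marks an untested entry.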
# rice (Oryza sativa) = assay: as above; settings: 250 g ai/ha, Flood, applied to paddy water, evaluated after 13 days
# Summary of the method: as §2
# [15] = system: barnyardgrass (Echinochloa crusgalli); assay: as above; settings: 250 g ai/ha, Flood, applied to paddy water, evaluated after 13 days
# Summary of the method: as §2
# [16] = system: ducksalad (Heteranthera limosa); assay: as above; settings: 250 g ai/ha, Flood, applied to paddy water, evaluated after 13 days
# Summary of the method: as §2
# corn (Zea mays) [17] = assay: Test A preemergence soil spray, visual injury rating 0-100; settings: 10 days, 0 = no effect, 100 = complete control
# Summary of the method: as §1
# [18] = system: oat, wild (wild oat, Avena fatua); assay: as above; settings: 10 days, 0 = no effect, 100 = complete control
# Summary of the method: as §1
# [19] = system: barnyardgrass (Echinochloa crus-galli); assay: as above; settings: 10 days, 0 = no effect, 100 = complete control
# Summary of the method: as §1
# [20] = system: ragweed (common ragweed, Ambrosia artemisiifolia); assay: as above; settings: 10 days, 0 = no effect, 100 = complete control
# Summary of the method: as §1
# [21] = system: wheat (Triticum aestivum); assay: as above; settings: 10 days, 0 = no effect, 100 = complete control
# Summary of the method: as §1
# [22] = system: palmer (palmer amaranth, palmer pigweed, Amaranthus palmeri); assay: as above; settings: 10 days, 0 = no effect, 100 = complete control
# Summary of the method: as §1
# [23] = system: blackgrass (Alopecurus myosuroides); assay: as above; settings: 10 days, 0 = no effect, 100 = complete control
# Summary of the method: as §1
# soybean (Glycine max) [24] = assay: as above; settings: 10 days, 0 = no effect, 100 = complete control
# Summary of the method: as §1
# [25] = system: foxtail, giant (giant foxtail, Setaria faberi); assay: as above; settings: 10 days, 0 = no effect, 100 = complete control
# Summary of the method: as §1
# kochia (Bassia scoparia) [26] = assay: as above; settings: 10 days, 0 = no effect, 100 = complete control
# Summary of the method: as §1
# [27] = system: ryegrass, Italian (italian ryegrass, Lolium multiflorum); assay: as above; settings: 10 days, 0 = no effect, 100 = complete control
# Summary of the method: as §1
compound,measurement,setting,value
"CC1(C(=O)N[C@H]2C=C[C@@H](C(=O)O)C2)CN(c2cc(F)cc(F)c2)C(=O)O1 (stereo partly drawn) [Compound 51, (1S,4R)-4-[[[3-(3,5-Difluorophenyl)-5-methyl-2-oxo-5-oxazolidinyl]carbonyl]amino]-2-cyclopentene-1-carboxylic acid]",Corn plant response rating (0 to 100 scale),corn (Zea mays) [1]; 125 g ai/ha,90
same,Corn plant response rating (0 to 100 scale),corn (Zea mays) [1]; 500 g ai/ha,90
same,"Oat, Wild plant response rating (0 to 100 scale)",[2]; 125 g ai/ha,90
same,"Oat, Wild plant response rating (0 to 100 scale)",[2]; 500 g ai/ha,90
same,Barnyardgrass plant response rating (0 to 100 scale),[3]; 125 g ai/ha,100
same,Barnyardgrass plant response rating (0 to 100 scale),[3]; 500 g ai/ha,100
same,Ragweed plant response rating (0 to 100 scale),[4]; 125 g ai/ha,60
same,Ragweed plant response rating (0 to 100 scale),[4]; 500 g ai/ha,70
same,Wheat plant response rating (0 to 100 scale),[5]; 125 g ai/ha,90
same,Wheat plant response rating (0 to 100 scale),[5]; 500 g ai/ha,90
same,"Amaranth, Palmer / Pigweed, Palmer plant response rating (0 to 100 scale)",[6]; 125 g ai/ha,90
same,"Amaranth, Palmer / Pigweed, Palmer plant response rating (0 to 100 scale)",[6]; 500 g ai/ha,90
same,Blackgrass plant response rating (0 to 100 scale),[7]; 125 g ai/ha,90
same,Blackgrass plant response rating (0 to 100 scale),[7]; 500 g ai/ha,100
same,Soybean plant response rating (0 to 100 scale),soybean (Glycine max) [8]; 125 g ai/ha,70
same,Soybean plant response rating (0 to 100 scale),soybean (Glycine max) [8]; 500 g ai/ha,100
same,Galium plant response rating (0 to 100 scale),[9]; 125 g ai/ha,70
same,Galium plant response rating (0 to 100 scale),[9]; 500 g ai/ha,70
same,"Foxtail, Giant plant response rating (0 to 100 scale)",[10]; 125 g ai/ha,90
same,"Foxtail, Giant plant response rating (0 to 100 scale)",[10]; 500 g ai/ha,90
same,Kochia plant response rating (0 to 100 scale),kochia (Bassia scoparia) [11]; 125 g ai/ha,80
same,Kochia plant response rating (0 to 100 scale),kochia (Bassia scoparia) [11]; 500 g ai/ha,80
same,Horseweed plant response rating (0 to 100 scale),[12]; 125 g ai/ha,80
same,Horseweed plant response rating (0 to 100 scale),[12]; 500 g ai/ha,100
same,"Ryegrass, Italian plant response rating (0 to 100 scale)",[13]; 125 g ai/ha,70
same,"Ryegrass, Italian plant response rating (0 to 100 scale)",[13]; 500 g ai/ha,70
same,"Plant response rating, Sedge, Umbrella (0 to 100 scale, 0 is no effect and 100 is complete control)",[14],60
same,"Plant response rating, Rice (0 to 100 scale, 0 is no effect and 100 is complete control)",rice (Oryza sativa),60
same,"Plant response rating, Barnyardgrass (0 to 100 scale, 0 is no effect and 100 is complete control)",[15],75
same,"Plant response rating, Ducksalad (0 to 100 scale, 0 is no effect and 100 is complete control)",[16],60
same,Corn plant response rating (0 to 100 scale),corn (Zea mays) [17]; 125 g ai/ha,90
same,Corn plant response rating (0 to 100 scale),corn (Zea mays) [17]; 500 g ai/ha,90
same,"Oat, Wild plant response rating (0 to 100 scale)",[18]; 125 g ai/ha,90
same,"Oat, Wild plant response rating (0 to 100 scale)",[18]; 500 g ai/ha,90
same,Barnyardgrass plant response rating (0 to 100 scale),[19]; 125 g ai/ha,100
same,Barnyardgrass plant response rating (0 to 100 scale),[19]; 500 g ai/ha,100
same,Ragweed plant response rating (0 to 100 scale),[20]; 125 g ai/ha,70
same,Ragweed plant response rating (0 to 100 scale),[20]; 500 g ai/ha,80
same,Wheat plant response rating (0 to 100 scale),[21]; 125 g ai/ha,100
same,Wheat plant response rating (0 to 100 scale),[21]; 500 g ai/ha,100
same,"Amaranth, Palmer plant response rating (0 to 100 scale)",[22]; 125 g ai/ha,90
same,"Amaranth, Palmer plant response rating (0 to 100 scale)",[22]; 500 g ai/ha,100
same,Blackgrass plant response rating (0 to 100 scale),[23]; 125 g ai/ha,80
same,Blackgrass plant response rating (0 to 100 scale),[23]; 500 g ai/ha,90
same,Soybean plant response rating (0 to 100 scale),soybean (Glycine max) [24]; 125 g ai/ha,70
same,Soybean plant response rating (0 to 100 scale),soybean (Glycine max) [24]; 500 g ai/ha,100
same,"Foxtail, Giant plant response rating (0 to 100 scale)",[25]; 125 g ai/ha,90
same,"Foxtail, Giant plant response rating (0 to 100 scale)",[25]; 500 g ai/ha,100
same,Kochia plant response rating (0 to 100 scale),kochia (Bassia scoparia) [26]; 125 g ai/ha,90
same,Kochia plant response rating (0 to 100 scale),kochia (Bassia scoparia) [26]; 500 g ai/ha,100
same,"Ryegrass, Italian plant response rating (0 to 100 scale)",[27]; 125 g ai/ha,90
same,"Ryegrass, Italian plant response rating (0 to 100 scale)",[27]; 500 g ai/ha,100

# — patent US20260285850A1, “SUBSTITUTED OXAZOLIDINONES AND IMIDAZOLINONES AS HERBICIDES” (FMC CORPORATION, priority 2023, published 2026)
